Among the data in US20240190890A1, “MK2 INHIBITORS AND USES THEREOF” (Bristol-Myers Squibb Company, priority 2022, published 2024) are IC50 values, retold here.

Chain of p38a activated, mitogen-activated protein kinase-activated protein kinase 2 (MAPKAP-K2 or MK2) enzyme (P49137 whole entry): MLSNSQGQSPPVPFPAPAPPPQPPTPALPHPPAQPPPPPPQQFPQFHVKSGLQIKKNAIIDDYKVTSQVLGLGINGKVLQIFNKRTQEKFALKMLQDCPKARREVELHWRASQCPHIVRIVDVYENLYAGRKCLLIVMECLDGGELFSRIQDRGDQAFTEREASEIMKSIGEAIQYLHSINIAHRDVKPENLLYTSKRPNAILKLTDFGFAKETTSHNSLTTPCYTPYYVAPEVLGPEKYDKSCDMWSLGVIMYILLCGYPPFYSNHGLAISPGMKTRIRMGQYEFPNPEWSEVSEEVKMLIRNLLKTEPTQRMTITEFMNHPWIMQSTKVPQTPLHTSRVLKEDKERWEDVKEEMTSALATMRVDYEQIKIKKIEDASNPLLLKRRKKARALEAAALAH

The target in this experiment is p38a activated, mitogen-activated protein kinase-activated protein kinase 2 (MAPKAP-K2 or MK2) enzyme (Homo sapiens (Human), UniProt P49137). Nature of the experiment: MK2 Omnia continuous-read kinase assay for compound potency. The experiment is classed as biochemical. Particulars: [MK-2]=0.4 nM, [ATP]=10 μM, [ST3-Sox]=10 μM; room temperature. An excerpt:
Mitogen-Activated Protein Kinase-Activated Protein Kinase 2 Omnia® Assay for Compound Potency Assessment:
The protocol below describes a continuous-read kinase assay optimized to measure potency of compounds against p38a activated, mitogen-activated protein kinase-activated protein kinase 2 (MAPKAP-K2 or MK2) enzyme. Further details of this assay are described by Life Technologies, Carlsbad, CA on their website at the following URL: http://tools.lifetechnologies.com/content/sfs/manuals/omnia_kinase_assay_man.pdf. • [Reagent] used: • [MK-2]=0.4 nM, • [ATP]=10 μM and • [ST3-Sox]=10 μM (ATP^appKM=10 μM)
Briefly, 10× stock solutions of MK2 (PV3317, from Life Technologies), 1.13X ATP (AS001A), and Sox conjugated peptide substrate, S/T3-Sox, (KZN1031) were prepared in 1× kinase reaction buffer consisting of 20 mM Tris, pH 7.5, 5 mM MgCl2, 1 mM EGTA, 5 mM β-glycerophosphate, 5% glycerol (10× stock, KB001A) and 0.2 mM DTT (DS001A). Enzyme solution (5 μL) was added to each of DMSO ([…]) or serially diluted test compounds prepared in DMSO in a Corning (#3574) 384-well, white, non-binding surface microtiter plate (Corning, NY). Kinase reactions were started with the addition of 45 μL of the ATP-peptide substrate S/T3-Sox mix and monitored every 71 seconds for 120 minutes at λex360/λem485 in a Synergy H4 plate reader from BioTek (Winooski, VT) at room temperature.
Background signals from the no enzyme control wells were subtracted from all progress curves. The initial linear portions of the net progress curves were fit according to a linear equation to yield the slope and percentage of inhibition (% inhibition) at each compound concentration. The net progress curves obtained during the first two hours of reactions were also fit according to an ascending single-exponential equation (Eq. 1) to yield kobs values at each compound concentration. Plots of % Inhibition versus inhibitor concentrations were fit according to a dose-response equation (Eq. 2) to generate IC50 and Hill slope values while plots of kobs versus inhibitor concentration were fit according to Equation 3 (Eq. 3) to generate apparent kinact/K1 values using the GraphPad PRISM software (Version 6.00; GraphPad San Diego, CA).
where F is the fluorescence intensity from the plate reader, V0 is a constant reflecting the relationship between the instrument readout and product concentration, t is time, e is Euler's number, and kobs is the observed inactivation rate constant.
where % Inhibition is percentage of inhibition, IC50 is half maximal inhibitory concentration, [I] is the inhibitor concentration, and n is the Hill slope.
where kobs is the observed inactivation rate constant, kinact is the apparent inactivation rate constant, K1 is the apparent inhibition constant, and [I] is the inhibitor concentration. […] Potency results for the compounds tested are shown in Table 4 in the column entitled “MK2 IC50.”
One may read the IC50 as the concentration that gives 50% inhibition. In the case of `C[C@@H]1CNc2c(sc3ccc4nc(-c5cc(Cl)nc(COC6CCOCC6)n5)ccc4c23)C(=O)N1` [Example I-23, (R)-3-(6-chloro-2-(((tetrahydro-2H-pyran-4-yl)oxy)methyl)pyrimidin-4-yl)-10-methyl-9,10,11,12-tetrahydro-8H-[1,4]diazepino[5′,6′:4,5]thieno[3,2-f]quinolin-8-one], the IC50 came to 487 nM.

On to `C[C@@H]1CNc2c(sc3ccc4nc(-c5nc(Cl)ncc5COC5CCOCC5)ccc4c23)C(=O)N1` [Example I-24, (R)-3-(2-chloro-5-(((tetrahydro-2H-pyran-4-yl)oxy)methyl)pyrimidin-4-yl)-10-methyl-9,10,11,12-tetrahydro-8H-[1,4]diazepino[5′,6′:4,5]thieno[3,2-f]quinolin-8-one], for which the IC50 amounted to 98 nM.

Turning to `C=Cc1ncc(COC2CCOCC2)c(-c2ccc3c(ccc4sc5c(c43)NC[C@@H](C)NC5=O)n2)n1` [Example I-25, (R)-10-methyl-3-(5-(((tetrahydro-2H-pyran-4-yl)oxy)methyl)-2-vinylpyrimidin-4-yl)-9,10,11,12-tetrahydro-8H-[1,4]diazepino[5′,6′:4,5]thieno[3,2-f]quinolin-8-one], the IC50 was 43 nM.

Turning to `C=Cc1ncc(COC2(C)CCC2)c(-c2ccc3c(ccc4sc5c(c43)NC[C@@H](C)NC5=O)n2)n1` [Example I-26, (R)-10-methyl-3-(5-((1-methylcyclobutoxy)methyl)-2-vinylpyrimidin-4-yl)-9,10,11,12-tetrahydro-8H-[1,4]diazepino[5′,6′:4,5]thieno[3,2-f]quinolin-8-one], the IC50 was found to be 684 nM.

Consider `C[C@@H]1CNc2c(sc3ccc4nc(-c5nc(Cl)ncc5COC5(C)CCC5)ccc4c23)C(=O)N1` [Example I-27, (R)-3-(2-chloro-5-((1-methylcyclobutoxy)methyl)pyrimidin-4-yl)-10-methyl-9,10,11,12-tetrahydro-8H-[1,4]diazepino[5′,6′:4,5]thieno[3,2-f]quinolin-8-one], for which the half-inhibitory concentration (IC50) was determined as 391 nM.

With `C[C@@H]1CNc2c(sc3ccc4nc(-c5nc(Cl)ncc5COC5(C)COC5)ccc4c23)C(=O)N1` [Example I-28, (R)-3-(2-chloro-5-(((3-methyloxetan-3-yl)oxy)methyl)pyrimidin-4-yl)-10-methyl-9,10,11,12-tetrahydro-8H-[1,4]diazepino[5′,6′:4,5]thieno[3,2-f]quinolin-8-one], the concentration for half-maximal inhibition (IC50) came to 18 nM.

As for `C=Cc1ncc(COC2(C)COC2)c(-c2ccc3c(ccc4sc5c(c43)NC[C@@H](C)NC5=O)n2)n1` [Example I-29, (R)-10-methyl-3-(5-(((3-methyloxetan-3-yl)oxy)methyl)-2-vinylpyrimidin-4-yl)-9,10,11,12-tetrahydro-8H-[1,4]diazepino[5′,6′:4,5]thieno[3,2-f]quinolin-8-one], the 50% inhibitory concentration (IC50) is 20 nM.

As for `CCOCc1nc(Cl)cc(-c2ccc3c(ccc4sc5c(c43)NC[C@@H](C)NC5=O)n2)n1` [Example I-30, (R)-3-(6-chloro-2-(ethoxymethyl)pyrimidin-4-yl)-10-methyl-9,10,11,12-tetrahydro-8H-[1,4]diazepino[5′,6′:4,5]thieno[3,2-f]quinolin-8-one], the IC50 is 16 nM.

`C=C(F)c1ncc(F)c(-c2ccc3c(ccc4sc5c(c43)NC[C@@H](C)NC5=O)n2)n1` [Example I-31, (R)-3-(5-fluoro-2-(1-fluorovinyl)pyrimidin-4-yl)-10-methyl-9,10,11,12-tetrahydro-8H-[1,4]diazepino[5′,6′:4,5]thieno[3,2-f]quinolin-8-one]: the IC50 worked out at 24 nM.

Turning to `C=Cc1ncc(OC)c(-c2ccc3c(ccc4sc5c(c43)NC[C@@H](C)NC5=O)n2)n1` [Example I-32, (R)-3-(5-methoxy-2-vinylpyrimidin-4-yl)-10-methyl-9,10,11,12-tetrahydro-8H-[1,4]diazepino[5′,6′:4,5]thieno[3,2-f]quinolin-8-one], the IC50 amounted to 245 nM.

In the case of `C=Cc1ncc(C)c(-c2ccc3c(ccc4sc5c(c43)NC[C@@H](C)NC5=O)n2)n1` [Example I-33, (R)-10-methyl-3-(5-methyl-2-vinylpyrimidin-4-yl)-9,10,11,12-tetrahydro-8H-[1,4]diazepino[5′,6′:4,5]thieno[3,2-f]quinolin-8-one], the IC50 is 120 nM.

Regarding `C=Cc1cc(-c2ccc3c(ccc4sc5c(c43)NC[C@@H](C)NC5=O)n2)ncn1` [Example I-34, (R)-10-methyl-3-(6-vinylpyrimidin-4-yl)-9,10,11,12-tetrahydro-8H-[1,4]diazepino[5′,6′:4,5]thieno[3,2-f]quinolin-8-one], the IC50 is 13 nM.

Turning to `C/C=C/c1cc(-c2ccc3c(ccc4sc5c(c43)NC[C@@H](C)NC5=O)n2)nc(COCC)n1` [Example I-35, (R,E)-3-(2-(ethoxymethyl)-6-(prop-1-en-1-yl)pyrimidin-4-yl)-10-methyl-9,10,11,12-tetrahydro-8H-[1,4]diazepino[5′,6′:4,5]thieno[3,2-f]quinolin-8-one], the IC50 worked out at 40 nM.

As for `C/C=C\c1cc(-c2ccc3c(ccc4sc5c(c43)NC[C@@H](C)NC5=O)n2)nc(COCC)n1` [Example I-36, (R,Z)-3-(2-(ethoxymethyl)-6-(prop-1-en-1-yl)pyrimidin-4-yl)-10-methyl-9,10,11,12-tetrahydro-8H-[1,4]diazepino[5′,6′:4,5]thieno[3,2-f]quinolin-8-one], the half-maximal inhibitory concentration (IC50) was determined as 12 nM.

For the molecule `C=C(C)c1cc(-c2ccc3c(ccc4sc5c(c43)NC[C@@H](C)NC5=O)n2)nc(COCC)n1` [Example I-37, (R)-3-(2-(ethoxymethyl)-6-(prop-1-en-2-yl)pyrimidin-4-yl)-10-methyl-9,10,11,12-tetrahydro-8H-[1,4]diazepino[5′,6′:4,5]thieno[3,2-f]quinolin-8-one], the IC50 was determined as 10 nM.

Turning to `C#Cc1cc(-c2ccc3c(ccc4sc5c(c43)NC[C@@H](C)NC5=O)n2)ncn1` [Example I-38, (R)-3-(6-ethynylpyrimidin-4-yl)-10-methyl-9,10,11,12-tetrahydro-8H-[1,4]diazepino[5′,6′:4,5]thieno[3,2-f]quinolin-8-one], the IC50 was found to be 5 nM.

For the molecule `C#Cc1cc(-c2ccc3c(ccc4sc5c(c43)NC[C@@H](C)NC5=O)n2)nc(COCC)n1` [Example I-39, (R)-3-(2-(ethoxymethyl)-6-ethynylpyrimidin-4-yl)-10-methyl-9,10,11,12-tetrahydro-8H-[1,4]diazepino[5′,6′:4,5]thieno[3,2-f]quinolin-8-one], the IC50 is 8 nM.

`C#Cc1nccc(-c2ccc3c(ccc4sc5c(c43)NC[C@@H](C)NC5=O)n2)n1` [Example I-40, (R)-3-(2-ethynylpyrimidin-4-yl)-10-methyl-9,10,11,12-tetrahydro-8H-[1,4]diazepino[5′,6′:4,5]thieno[3,2-f]quinolin-8-one]: the IC50 worked out at 25 nM.

For `C#Cc1ncc(C)c(-c2ccc3c(ccc4sc5c(c43)NC[C@@H](C)NC5=O)n2)n1` [Example I-41, (R)-3-(2-ethynyl-5-methylpyrimidin-4-yl)-10-methyl-9,10,11,12-tetrahydro-8H-[1,4]diazepino[5′,6′:4,5]thieno[3,2-f]quinolin-8-one], the IC50 is 199 nM.

`C#Cc1ncc(OC)c(-c2ccc3c(ccc4sc5c(c43)NC[C@@H](C)NC5=O)n2)n1` [Example I-42, (R)-3-(2-ethynyl-5-methoxypyrimidin-4-yl)-10-methyl-9,10,11,12-tetrahydro-8H-[1,4]diazepino[5′,6′:4,5]thieno[3,2-f]quinolin-8-one]: the IC50 is 233 nM.

Regarding `C[C@@H]1CNc2c(sc3ccc4nc(-c5nc(Cl)cc(N6CCN(C)CC6)n5)ccc4c23)C(=O)N1` [Example I-43, (R)-3-(4-chloro-6-(4-methylpiperazin-1-yl)pyrimidin-2-yl)-10-methyl-9,10,11,12-tetrahydro-8H-[1,4]diazepino[5′,6′:4,5]thieno[3,2-f]quinolin-8-one], the IC50 came to 440 nM.

As for `CC#Cc1ncc(F)c(-c2ccc3c(ccc4sc5c(c43)NC[C@@H](C)NC5=O)n2)n1` [Example I-44, (R)-3-(5-fluoro-2-(prop-1-yn-1-yl)pyrimidin-4-yl)-10-methyl-9,10,11,12-tetrahydro-8H-[1,4]diazepino[5′,6′:4,5]thieno[3,2-f]quinolin-8-one], the concentration for half-maximal inhibition (IC50) came to 1000 nM.
